Legend:
[1] = test system: dopaminergic neurons of the substantia nigra pars compacta; assay: Confocal localization of Cy3 label in substantia nigra after ICV administration; type: in vivo, mice; conditions: FIG. 17
Protocol: (§1) For the infusion of siRNAs, C57BV6Ncr1 male mice were deeply anesthetized with isofluorane and placed in a mouse adaptor (Stoelting ref. 51625) attached to a stereotaxic frame with digital display readout (David Kopf Instruments, model 940). […] The needle was left in the place for 3 min to avoid upward flow of the siRNA solution.
(§2) The mice were perfused with 4% PFA at two different time points, 1 and 3 hours post-administration of the siRNA. Brains were dissected and post-fixed in a solution of 4% PFA for 24 h at 4° C. Then brains were placed in a 30% sucrose solution for 48 h at 4° C. Brains were frozen in 2-methylbutane at −30 to −40° C. and stored at −80° C. Brains were sectioned in a cryostat Leica CM3050 S ([…]). Free-floating sections were washed and stored at 4° C. in 0.1 M PBS and 0.001% sodium azide.
(§3) Sections were washed in PBS, blocked with 2% goat serum and 0.1% Triton and incubated with anti-TH antibody (1:800 mouse) overnight at 4° C. After washing, sections were incubated with secondary antibody Alexa Fluor 647 anti-mouse (Invitrogen) for 1 h at room temperature. Finally sections were mounted with Dako Fluorescent Mounting Medium and analyzed using a confocal spectral microscope (FV 1000 Olympus). Pictures were generated using FV 10-ASW 1.7 Viewer.

[2] = test system: noradrenergic neurons of the locus coeruleus; assay: Confocal localization of Cy3 label in locus coeruleus after ICV administration; type: in vivo, mice; conditions: FIG. 18
Protocol: as §1, §2, §3

[3] = 1 hour after ICV administration, 100 μg

NLF-NS-siRNA-Cy3: non-sense siRNA (SEQ ID NO 69/70) conjugated to nomifensin, antisense strand carrying Cy3 (chain 1 AGUACUGCUUACGAUACGG; chain 2 CCGUAUCGUAAGCAGUACU; conjugated to nomifensin, Cy3 label, positions not given here)
Cy3 red labeling in TH-positive nigral neurons [1, 3]: can be detected within TH-positive nigral neurons
Cy3 red labeling in gabaergic neurons of the substantia nigra reticulata [1, 3]: not in the gabaergic neurons
Cy3 red intracellular labeling in substantia nigra ([1]; 3 hours after ICV injection): any red intracellular labeling can not be detected
Cy3 red labeling in TH-positive noradrenergic neurons [2, 3]: can be detected mainly within TH-positive noradrenergic neurons
Cy3 red intracellular labeling in locus coeruleus ([2]; 3 hours after ICV injection): any red intracellular labeling can not be detected

— patent US10071163B2, “Compositions and methods for selective delivery of oligonucleotide molecules to specific neuron types” (nLife Therapeutics, S.L., priority 2010, dated 2018)
